Measured values: publication PMC9951859, “Investigation of α,ω-Disubstituted Polyamine-Cholic Acid Conjugates Identifies Hyodeoxycholic and Chenodeoxycholic Scaffolds as Non-Toxic, Potent Antimicrobials” (Antibiotics, 2023)
Converted amounts (≈) assume the structure as drawn. Read-outs that look alike come from different tables or passages of the source.

Experiments:
[1] = tested on: Staphylococcus aureus ATCC 43300 (MRSA); assay: Antimicrobial MIC assay (CO-ADD) against S. aureus MRSA; type: cell-based; conditions: Staphylococcus aureus, read-out: MIC S.a.
From the text: (§1) Antimicrobial evaluation against S. aureus (MRSA) (ATCC 43300), E. coli (ATCC 25922), K. pneumoniae (ATCC 700603), A. baumannii (ATCC 19606), C. albicans (ATCC 90028), and C. neoformans (ATCC 208821) was undertaken at the Community for Open Antimicrobial Drug Discovery at The University of Queensland (Australia) according to their standard protocols as reported previously.

[2] = tested on: Escherichia coli ATCC 25922; assay: Antimicrobial MIC assay (CO-ADD) against E. coli; type: cell-based; conditions: Escherichia coli, ATCC25922, read-out: MIC E.c.
From the text: as §1

[3] = tested on: Klebsiella pneumoniae ATCC 700603; assay: Antimicrobial MIC assay (CO-ADD) against K. pneumoniae; type: cell-based; conditions: Klebsiella pneumoniae, ATCC700603, read-out: MIC K.p.
From the text: as §1

[4] = tested on: Pseudomonas aeruginosa ATCC 27853; assay: Antimicrobial MIC assay (CO-ADD) against P. aeruginosa; type: cell-based; conditions: Pseudomonas aeruginosa, ATCC27853, read-out: MIC P.a.
[5] = tested on: Acinetobacter baumannii ATCC 19606; assay: Antimicrobial MIC assay (CO-ADD) against A. baumannii; type: cell-based; conditions: Acinetobacter baumannii, ATCC19606, read-out: MIC A.b.
From the text: as §1

[6] = tested on: Candida albicans ATCC 90028; assay: Antimicrobial MIC assay (CO-ADD) against C. albicans; type: cell-based; conditions: mean (n = 2)
From the text: as §1

[7] = tested on: Cryptococcus neoformans ATCC 208821; assay: Antimicrobial MIC assay (CO-ADD) against C. neoformans; type: cell-based
From the text: as §1

[8] = Cytotoxicity assay on HEK293; type: cell-based, human; conditions: human, HEK293 human embryonic kidney cells; concentration at 50% cytotoxicity on HEK293; mean (n = 2); top dose tested 32 μg/mL
Description: Cytotoxicity assays were conducted using the protocols previously reported.

human red blood cells = assay: Hemolytic assay; type: cell-based; conditions: concentration at 10% hemolytic activity on human red blood cells; mean (n = 2); top dose tested 32 μg/mL
Description: Hemolytic assays were conducted using the protocols previously reported.

P. aeruginosa ATCC 27853 = assay: Antibiotic enhancement of doxycycline; type: cell-based, Pseudomonas aeruginosa; conditions: doxycycline at 2 μg/mL
Description: (§2) Restoring enhancer concentrations were determined with an inoculum of 5 × 10^5 CFU in […] of MH broth containing two-fold serial dilutions of each derivative in the presence of either doxycycline or erythromycin at 2 μg/mL. […] These measurements were independently repeated in triplicate.

E. coli ATCC 25922 = assay: Antibiotic enhancement of erythromycin; type: cell-based, Escherichia coli; conditions: erythromycin at 2 μg/mL
Description: as §2

[9] = Candida albicans, ATCC90028, read-out: MIC C.a., Candida albicans ATCC 90028
[10] = Cryptococcus neoformans, ATCC208821, read-out: MIC C.n.

| SMILES | MIC [1] [µM] | MIC [2] [µM] | MIC [3] [µM] | MIC [4] [µM] | MIC [5] [µM] | MIC [6, 9] [µM] | MIC [7, 10] [µM] | IC50 [8] [µM] | Hemolysis (HC10) (human red blood cells) [µM] | enhancement of antibiotic activity of doxycycline (P. aeruginosa ATCC 27853) | enhancement of antibiotic activity of erythromycin (E. coli ATCC 25922) | MIC ([6]; ATCC90028, Candida albicans ATCC 90028, read-out: MIC C.a.) [µM] | MIC ([7]; ATCC208821, Cryptococcus neoformans ATCC 208821, mean (n = 2), read-out: MIC C.n.) [µM] |
| --- | --- | --- | --- | --- | --- | --- | --- | --- | --- | --- | --- | --- | --- |
| C[C@H](CCC(=O)NCCCNCCCCNCCCNC(=O)CC[C@@H](C)[C@H]1CC[C@H]2[C@@H]3C[C@H](O)[C@@H]4C[C@H](O)CC[C@]4(C)[C@H]3CC[C@]12C)[C@H]1CC[C@H]2[C@@H]3C[C@H](O)[C@@H]4C[C@H](O)CC[C@]4(C)[C@H]3CC[C@]12C.O=C(O)C(F)(F)F.O=C(O)C(F)(F)F [Compound 7a, N^1,N^4-Bis(3-((R)-4-((3R,5R,6S,8S,9S,10R,13R,14S,17R)-3,6-dihydroxy-10,13-dimethylhexadecahydro-1H-cyclopenta[a]phenanthren-17-yl)pentanamido)propyl)butane-1,4-diaminium 2,2,2-trifluoroacetate] | 3.4 | > 27 | > 27 | > 27 | > 27 | 14 | ≤ 0.21 | > 27 | >27 | No enhancement was observed | No enhancement was observed |  |  |
| C[C@H](CCC(=O)NCCCNCCCCCCNCCCNC(=O)CC[C@@H](C)[C@H]1CC[C@H]2[C@@H]3C[C@H](O)[C@@H]4C[C@H](O)CC[C@]4(C)[C@H]3CC[C@]12C)[C@H]1CC[C@H]2[C@@H]3C[C@H](O)[C@@H]4C[C@H](O)CC[C@]4(C)[C@H]3CC[C@]12C.O=C(O)C(F)(F)F.O=C(O)C(F)(F)F [Compound 7b, N^1,N^6-Bis(3-((R)-4-((3R,5R,6S,8S,9S,10R,13R,14S,17R)-3,6-dihydroxy-10,13-dimethylhexadecahydro-1H-cyclopenta[a]phenanthren-17-yl)pentanamido)propyl)hexane-1,6-diaminium 2,2,2-trifluoroacetate] | ≤ 0.21 | > 26 | > 26 | > 26 | > 26 | 13 | ≤ 0.21 | > 26 | >26 |  |  |  |  |
| C[C@H](CCC(=O)NCCCNCCCCCCCCCCCCNCCCNC(=O)CC[C@@H](C)[C@H]1CC[C@H]2[C@@H]3C[C@H](O)[C@@H]4C[C@H](O)CC[C@]4(C)[C@H]3CC[C@]12C)[C@H]1CC[C@H]2[C@@H]3C[C@H](O)[C@@H]4C[C@H](O)CC[C@]4(C)[C@H]3CC[C@]12C.O=C(O)C(F)(F)F.O=C(O)C(F)(F)F [Compound 7f, N^1,N^12-Bis(3-((R)-4-((3R,5R,6S,8S,9S,10R,13R,14S,17R)-3,6-dihydroxy-10,13-dimethylhexadecahydro-1H-cyclopenta[a]phenanthren-17-yl)pentanamido)propyl)dodecane-1,12-diaminium 2,2,2-trifluoroacetate] | ≤ 0.19 | > 25 | > 25 | > 25 | > 25 | ≤ 0.2 | ≤ 0.19 | 25 | >25 |  |  |  |  |
| C[C@H](CCC(=O)NCCCNCCCCNCCCNC(=O)CC[C@@H](C)[C@H]1CC[C@H]2[C@@H]3[C@@H](O)C[C@@H]4C[C@H](O)CC[C@]4(C)[C@H]3CC[C@]12C)[C@H]1CC[C@H]2[C@@H]3[C@@H](O)C[C@@H]4C[C@H](O)CC[C@]4(C)[C@H]3CC[C@]12C.O=C(O)C(F)(F)F.O=C(O)C(F)(F)F [Compound 8a, N^1,N^4-Bis(3-((R)-4-((3R,5S,7S,8R,9S,10S,13R,14S,17R)-3,7-dihydroxy-10,13-dimethylhexadecahydro-1H-cyclopenta[a]phenanthren-17-yl)pentanamido)propyl)butane-1,4-diaminium 2,2,2-trifluoroacetate] | 27 | > 27 | > 27 | > 27 | > 27 | 27 | > 27 | > 27 | 7.3 |  |  |  |  |
| C[C@H](CCC(=O)NCCCNCCCCCCNCCCNC(=O)CC[C@@H](C)[C@H]1CC[C@H]2[C@@H]3[C@@H](O)C[C@@H]4C[C@H](O)CC[C@]4(C)[C@H]3CC[C@]12C)[C@H]1CC[C@H]2[C@@H]3[C@@H](O)C[C@@H]4C[C@H](O)CC[C@]4(C)[C@H]3CC[C@]12C.O=C(O)C(F)(F)F.O=C(O)C(F)(F)F [Compound 8b, N^1,N^6-Bis(3-((R)-4-((3R,5S,7S,8R,9S,10S,13R,14S,17R)-3,7-dihydroxy-10,13-dimethylhexadecahydro-1H-cyclopenta[a]phenanthren-17-yl)pentanamido)propyl)hexane-1,6-diaminium 2,2,2-trifluoroacetate] | 1.7 | > 26 | > 26 | > 26 | > 26 | 27 | > 27 | > 27 | 11 |  |  |  |  |
| C[C@H](CCC(=O)NCCCNCCCCCCCNCCCNC(=O)CC[C@@H](C)[C@H]1CC[C@H]2[C@@H]3[C@@H](O)C[C@@H]4C[C@H](O)CC[C@]4(C)[C@H]3CC[C@]12C)[C@H]1CC[C@H]2[C@@H]3[C@@H](O)C[C@@H]4C[C@H](O)CC[C@]4(C)[C@H]3CC[C@]12C.O=C(O)C(F)(F)F.O=C(O)C(F)(F)F [Compound 8c, N^1,N^7-Bis(3-((R)-4-((3R,5S,7S,8R,9S,10S,13R,14S,17R)-3,7-dihydroxy-10,13-dimethylhexadecahydro-1H-cyclopenta[a]phenanthren-17-yl)pentanamido)propyl)heptane-1,7-diaminium 2,2,2-trifluoroacetate] | ≤ 0.21 | > 26 | > 26 | > 26 | > 26 | 13 | 26 | > 26 | 11 |  |  |  |  |
| C[C@H](CCC(=O)NCCCNCCCCCCCCNCCCNC(=O)CC[C@@H](C)[C@H]1CC[C@H]2[C@@H]3[C@@H](O)C[C@@H]4C[C@H](O)CC[C@]4(C)[C@H]3CC[C@]12C)[C@H]1CC[C@H]2[C@@H]3[C@@H](O)C[C@@H]4C[C@H](O)CC[C@]4(C)[C@H]3CC[C@]12C.O=C(O)C(F)(F)F.O=C(O)C(F)(F)F [Compound 8d, N^1,N^8-Bis(3-((R)-4-((3R,5S,7S,8R,9S,10S,13R,14S,17R)-3,7-dihydroxy-10,13-dimethylhexadecahydro-1H-cyclopenta[a]phenanthren-17-yl)pentanamido)propyl)octane-1,8-diaminium 2,2,2-trifluoroacetate] | ≤ 0.2 | > 26 | > 26 | > 26 | > 26 | 26 | 13 | > 26 | 5.6 |  |  |  |  |
| C[C@H](CCC(=O)NCCCNCCCCCCCCCCNCCCNC(=O)CC[C@@H](C)[C@H]1CC[C@H]2[C@@H]3[C@@H](O)C[C@@H]4C[C@H](O)CC[C@]4(C)[C@H]3CC[C@]12C)[C@H]1CC[C@H]2[C@@H]3[C@@H](O)C[C@@H]4C[C@H](O)CC[C@]4(C)[C@H]3CC[C@]12C.O=C(O)C(F)(F)F.O=C(O)C(F)(F)F [Compound 8e, N^1,N^10-Bis(3-((R)-4-((3R,5S,7S,8R,9S,10S,13R,14S,17R)-3,7-dihydroxy-10,13-dimethylhexadecahydro-1H-cyclopenta[a]phenanthren-17-yl)pentanamido)propyl)decane-1,10-diaminium 2,2,2-trifluoroacetate] | ≤ 0.2 | > 25 | > 25 | > 25 | > 25 | 3.2 | 1.6 | > 25 | 3.3 |  |  |  |  |
| CC/C(=C(\c1ccccc1)c1ccc(OCCN(C)C)cc1)c1ccccc1 [Tamoxifen, reference compound] |  |  |  |  |  |  |  | 24 |  |  |  |  |  |
| OC(Cn1cncn1)(Cn1cncn1)c1ccc(F)cc1F [fluconazole, reference compound] |  |  |  |  |  |  |  |  |  |  |  | 0.4 (≈ 0.123 µg/mL) | 26 (≈ 7.96 µg/mL) |
| CN[C@H](CC(C)C)C(=O)N[C@H]1C(=O)N[C@@H](CC(N)=O)C(=O)N[C@H]2C(=O)N[C@H]3C(=O)N[C@H](C(=O)N[C@H](C(=O)O)c4cc(O)cc(O)c4-c4cc3ccc4O)[C@H](O)c3ccc(c(Cl)c3)Oc3cc2cc(c3O[C@@H]2O[C@H](CO)[C@@H](O)[C@H](O)[C@H]2O[C@H]2C[C@](C)(N)[C@H](O)[C@H](C)O2)Oc2ccc(cc2Cl)[C@H]1O [vancomycin, reference compound] | 0.7 (≈ 1.01 µg/mL) |  |  |  |  |  |  |  |  |  |  |  |  |
